Results as given in ChEMBL document CHEMBL1141251, “Anthelmintic macrolactams from Nonomuraea turkmeniaca MA7364” (2007).
In brackets after ≈: the same amount, converted by molar mass. Activity calls are given as the source filed them. The calls are words filed in the database; no cut-off is given here.

What was measured:
[1] = tested on: Haemonchus contortus; experiment: Anthelmintic activity against Haemonchus contortus assessed as reduction in L3 larval motility; type: functional
[2] = tested on: Heligmosomoides polygyrus; experiment: Anthelmintic activity in Heligmosomoides polygyrus infected Swiss Webster mouse assessed as reduction in worm count at 50 mg/kg, sc on day 3 relative to control; type: functional

SMILES | EC90 [1] [µg/mL] | Activity [2] | Activity ([2]; route subcutaneous) [%]
CCC1CCCCCC[C@H](O[C@@H]2O[C@@H](C)[C@@H](O)[C@@H](NC)[C@H]2O)[C@@H](C)C(=O)NCCC1 (some centres undefined) | 15 (≈ 35 µM) | inactive | –
CCC1CCCNC(=O)[C@H](C)[C@@H](O[C@@H]2O[C@@H](C)[C@@H](O)[C@@H](NC)[C@H]2O)CCC(C)CCC1 (some centres undefined) | 29 (≈ 65.5 µM) | – | 42
